Data on two molecules can be found in US4260630A, “Skin diseases” (priority 1977, dated 1981).

Series [1] deals with skin of homozygote albino mice strain XVII nc/Z. Put plainly: Chronic topical application on the ears of mice plus 365 nm UV irradiation (tumors, skin reactions). In kind it is in vivo. Here is the method:
The experiments were effected on groups of 40 mice, male and female.
After 115 topical applications of psoralen, followed each time by 10 minutes of irradiation (cumulative doses of 2.07×10^6 J/m^2), 100% of the animals developed a tumor; 50% having tumors on two ears.
(§1) 3-CPs was also tested intraperitoneally (36 injections of 0.4 mg each over a period of 7 weeks).
In all these experiments the U.V. lamp was of the type of HPW 125 W, manufactured by Philips.

The test system of series [2] is Saccharomyces cerevisiae. Put plainly: Uptake and removal of the drug in yeast (incubation time, washing). In kind it is cell-based. Here is the method: B--Effects of 365 nm light alone or 3-CPs, uptake and removal of the drug.
Since high doses of 365 nm light are needed to induce a killing effect in Saccharomyces cells in the presence of 3-CPs, the effects of 365 nm light alone were measured for doses up to 7500 J/m^2. It was established that, in the range of doses used for the biological experiments, there was only a small lethal effect of 365 nm light alone. Taking into account the standard errors of the surviving fraction (±10%) and the fact that part of the light energy is absorbed by the drug itself, the effect of 365 nm light alone has been neglected in the experiments.

For series [3], the system named is psoriasis lesions. Put plainly: Treatment of psoriasis patients, 1% 3-CPs ointment plus 365 nm UV. In kind it is in vivo. The note with it: 1% ointment. On the procedure: The effectiveness of thus-obtained 3-CPs was tested on 10 patients having ordinary psoriasis covering from 200 to 400 cm^2 of skin.
Preparation of 1% 3-CPs ointment:
1 g of 3-CPs was ground to a very fine powder and then dispersed in 70 g of "HYDROCERINE" (a commercially-available product manufactured by ROC) at 70° C. 29 ml of water were added at 70° C. in order to obtain an aqueous emulsion in oil.
The irradiation dose at 365 nm UV was of about 5 J/cm^2 per unit treatment and administered using the usual PUVA therapy set-up.

The nature of series [4]: Intraperitoneal toxicity in mice. Conditions: i.p., 36 injections of 0.4 mg over 7 weeks. The series is classed as in vivo. Here is the method:
as §1

In series [5] the test system is lymphocytes. The note with it: therapeutic treatment; cited from earlier work.
For series [6], the system named is skin. The note with it: short treatment intervals; cited from earlier work.
The subject of series [7] is skin. Put plainly: Erythema, skin injury and tanning on skin of patients. The series is classed as in vivo. Conditions: compared with 8-MOP. An excerpt:
In contrast, it has now been discovered that the mono-functional derivatives of formula I provoke absolutely no erythema, neither immediate nor postponed. No skin injury, neither macro- nor microscopic, was observed on patients. It will be readily apparent to men skilled in the art that this property is a very unique one for compounds of the psoralen family. […] Thus, undesirable cosmetic side effects appear to be absent. Consequently, these compounds are of great interest since, in contrast to 8-MOP, they permit subsequent treatment at short-time intervals for example twice a day over prolonged periods of time without any sun-burnlike injury to the skin.

Series [8] has as its system mice. The note with it: hairless mice; cited from earlier work.

On to `CCOC(=O)c1cc2cc3ccoc3cc2oc1=O` [Example 3-CPs, 3-carboethoxypsoralen], for which, in series [1] (115 applications on two ears, 30 minutes rest, 10 minutes irradiation), the “erythema, cutaneous inflammation, tumor” value is “neither erythema nor cutaneous inflammation nor any tumor”. Also, the mortality result in series [1] (115 applications, 450 days of observation) is on record as “No animal died”. For the same molecule, in series [1] (450 days of observation), the “macroscopic or microscopic reaction” value was “Neither macroscopic nor microscopic reaction was observed”. In series [2], the “binding in the dark” value is listed as “very loosely bound in the dark”. Besides, the “effect after one minute incubation” value in series [2] (10 μg/ml, wild-type and rad9-4) is listed as “about the maximum effect”. Further, in series [2] (10 μg/ml, wild-type and rad9-4, constant 365 nm dose), the “killing and "petite" induction vs incubation time before irradiation” value is listed as “independent of incubation time”. In addition, in series [2] (Saccharomyces), the “uptake and washing out compared with 8-MOP” value is “taken up and washed out as readily as 8-MOP”. Moreover, the “sensitizing effect after washing” value in series [2] (doses of 365 nm light used) is listed as “no sensitizing effect after washing”. Besides, in series [3], the “erythema or cutaneous inflammation” value is “no erythema or cutaneous inflammation” and the “speed of action compared with 8-MOP” value is given as “slower than that of 8-MOP”. Further, in series [4], the survival entry is reported as “All the animals remained alive”; the “weight and signs of toxicity” value is “without any decrease in weight or other sign of toxicity”.
Turning to `COc1c2occc2cc2ccc(=O)oc12` [Example 8-MOP, 8-methoxypsoralen, reference compound], the “lymphocytes in circulating blood” value in series [5] is recorded as “causes a decrease of the lymphocytes in circulating blood”. For the same molecule, the “erythemal reactions in the skin” value in series [6] is on record as “can cause violent erythemal reactions in the skin”. In series [7], the tanning effect entry is reported as “strong tanning effect”. For the same molecule, the “cancerogenic power in combination with U.V. radiation” value in series [8] was “high cancerogenic power”.
